Reference: patent publication US6768007B2, “Substituted 3′,4′-di-O-camphanoyl-(+)-cis-khellactone analogs, compositions thereof, and methods for using thereof” (Panacos Pharmaceuticals, Inc., priority 2001, dated 2004)
Like-named read-outs stand apart in the source and are kept apart here.

Key:
HIV-1 (IIIB isolate) = test: Anti-HIV activity in H9 lymphocytes (p24 antigen ELISA); assay type: cell-based; settings: H-9 lymphocytes; for Anti-HIV Activity EC50: HIV-1 IIIB, p24 ELISA, day 5, average of at least two experiments; for Therapeutic Index (TI = IC50/EC50): ratio of IC50 to EC50; for anti-viral activity (in words): summary of Table 1
Experimental: (§1) The biological evaluation of HIV-1 inhibition was carried out according to established protocols, (Kashiwada, Y., et al., J. Med. Chem. 39:1016-1017 (1996); Hashimoto, F., et al., Bioorg. & Med. Chem. 5:2133-2143 (1997)). The T cell line, H9, was maintained in continuous culture log-phase growth in complete medium (RPMI 1640 with 10% fetal calf serum supplemented with L-glutamine at 5% CO2 and 37° C.). Test samples were first dissolved in dimethyl sulfoxide at a concentration of 10 mg/ml to generate master stocks with dilutions made into tissue culture media to generate working stocks. The following drug concentrations were used routinely for screening: 50, 5, and 0.5 μg/mL. For agents found to be active, additional dilutions were prepared for subsequent testing so that an accurate EC50 value (defined below) could be determined. As the test samples were being prepared, an aliquot of the H9 cell line was infected with HIV-1 (IIIB isolate) while a second aliquot was mock-infected with complete medium. […] An amount of virus equal to approximately 6.25×10^4 TCID50 was added to the first aliquot of 3.5×10^6H9 cells. The second aliquot received tissue culture medium only, and these mock-infected cells were used for toxicity determinations (IC50 defined below). After a 4 h incubation at 37° C. and 5% CO2, both cell populations were washed three times with fresh medium and then added to the appropriate wells of a 96-well plate containing various concentrations of the test drug or tissue culture medium (positive infected control/negative drug control). In addition, AZT was assayed during each experiment as a positive drug control. The plates were incubated at 37° C. and 5% CO2 for 5 days. Cell-free culture supernatants were collected on Day 5 for use in a p24 antigen-capture ELISA assay to determine virus replication. p24 is the core protein of HIV and therefore is an indirect measure of the amount of virus present in the culture supernatants. Toxicity was determined using a viable dye method (XTT) on mock-infected H9 cells that were treated with test sample, AZT or no drug. If a test sample suppressed viral replication and was toxic to less than 50% of the cells, its effects were reported in the following terms: IC50, the concentration of test sample which was toxic to 50% of the mock-infected H9 cells; EC50, the concentration of the test sample which was able to suppress HIV replication by 50%; and Therapeutic Index (TI), the ratio of IC50 to EC50.
(§2) Compounds of the present invention were assayed for anti-HIV activity according to the following assay procedures. The T cell line, H9, and the promonocytic cell line, U937, were maintained separately in continuous culture with complete medium (RPMI 1640 with 10% fetal calf serum) at 5% CO2 and 37° C. The cell lines were used in experiments only when in the logarithmic phase of growth, whereas uninfected peripheral blood mononuclear cells (PBMCs) were first stimulated with PHA (1 μg/mL) for three days. All cell targets were incubated with HIV-1 (IIIB isolate, 1×10^6 TCID50/mL) for one hour at 37° C. and 5% CO2. The cell lines and PBMCs were washed thoroughly to remove unadsorbed virions and resuspended at 4×10^5 cells/mL in complete medium or complete medium with 10% v/v interleukin 2 (IL-2), respectively. […] aliquots were placed into wells of 96-well tissue culture plates containing an equal volume of test compounds (diluted in the appropriate culture medium). The toxicity of each compound was assessed by determining the viability of compound-exposed uninfected cells after five days at 37° C. and 5% CO2. A p24 antigen ELISA assay was used to determine the level of virus released in the medium of the HIV-infected cultures. The p24 antigen assay used a HIV-1 anti-p24 specific monoclonal antibody as the capture antibody coated onto 96-well plates. […]

mock-infected H9 cells = test: Cytotoxicity in mock-infected (uninfected) H9 cells; assay type: cell-based
Experimental: as §1, §2

[1] = tested on: HIV-1 replication in H9 lymphocyte cells; settings: background art, cited from earlier work; for EC50: read-out: EC50 against HIV-1 replication

Row | SMILES | Anti-HIV Activity EC50 (HIV-1 (IIIB isolate)) [µg/mL] | Therapeutic Index (TI = IC50/EC50) (HIV-1 (IIIB isolate)) | Cytotoxicity IC50 (mock-infected H9 cells) [µg/mL] | anti-viral activity (in words) (HIV-1 (IIIB isolate)) | Cytotoxicity IC50 (mock-infected H9 cells; uninfected H9 cells, five days, average of at least two experiments) [µg/mL] | EC50 [1] [nM] | therapeutic index (TI) [1]
1 | CC(=O)OCc1cc2c(C)cc(=O)oc2c2c1OC(C)(C)[C@H](OC(=O)[C@@]13CCC(C)(C(=O)O1)C3(C)C)[C@@H]2OC(=O)[C@@]12CCC(C)(C(=O)O1)C2(C)C (relative stereo) [Compound 9, (3′R,4′R)-3′,4′-Di-O-(S)-(−)-camphanoyl-6-acetoxymethyl-4-methyl-(+)-cis-khellactone] | 0.275 | 78.9 | 21.70 | – | – | – | –
2 | CC1(C)Oc2ccc3cc(CO)c(=O)oc3c2[C@@H](OC(=O)[C@@]23CCC(C)(C(=O)O2)C3(C)C)[C@H]1OC(=O)[C@@]12CCC(C)(C(=O)O1)C2(C)C (relative stereo) [Compound 10, (3′R,4′R)-3′,4′-Di-O-(S)-(−)-camphanoyl-3-hydroxymethyl-(+)-cis-khellactone] | 0.000188 | 188,032 | 35.35 | most potent | – | – | –
3 | COP(=O)(OC)OCc1cc2c(C)cc(=O)oc2c2c1OC(C)(C)[C@H](OC(=O)[C@@]13CCC(C)(C(=O)O1)C3(C)C)[C@@H]2OC(=O)[C@@]12CCC(C)(C(=O)O1)C2(C)C (relative stereo) [Compound 13, (3′R,4′R)-3′,4′-Di-O-(S)-(−)-camphanoyl-6-(dimethylphosphate)methyl-4-methyl-(+)-cis-khellactone] | 0.504 | 3.79 | – | – | 1.91 | – | –
4 | CC1(C)Oc2ccc3cc(CN)c(=O)oc3c2[C@@H](OC(=O)[C@@]23CC[C@@](C)(C(=O)O2)C3(C)C)[C@H]1OC(=O)[C@@]12CC[C@@](C)(C(=O)O1)C2(C)C (relative stereo) [Compound 14, (3′R,4′R)-3′,4′-Di-O-(S)-(−)-camphanoyl-3-aminomethyl-(+)-cis-khellactone] | 0.39 | – | 32.81 | – | – | – | –
5 | CCN(CC)Cc1cc2ccc3c(c2oc1=O)[C@@H](OC(=O)[C@@]12CC[C@@](C)(C(=O)O1)C2(C)C)[C@@H](OC(=O)[C@@]12CC[C@@](C)(C(=O)O1)C2(C)C)C(C)(C)O3 (relative stereo) [Compound 16, (3′R,4′R)-3′,4′-Di-O-(S)-(−)-camphanoyl-3-diethylaminomethyl-(+)-cis-khellactone] | 0.69 | 62 | 43.01 | – | – | – | –
6 | CC1(C)Oc2ccc3ccc(=O)oc3c2[C@@H](OC(=O)[C@@]23CCC(C)(C(=O)O2)C3(C)C)[C@H]1OC(=O)[C@@]12CCC(C)(C(=O)O1)C2(C)C (relative stereo) [DCK, 3′,4′-di-O-(S)-(−)-camphanoyl-(3′R,4′R)-(+)-cis-khellactone] | – | – | – | – | – | 0.256 | 136,719
7 | CC(=O)O[C@@H]1[C@H](OC(=O)CC(C)C)c2c(ccc3ccc(=O)oc23)OC1(C)C [suksdorfin, (3′R,4′R)-3′-acetoxy-4′-isovaleryloxy-(+)-cis-khellactone] | – | – | – | – | – | 1300 | 140

Second part, led by results:

Row | Anti-HIV Activity EC50 (HIV-1 (IIIB isolate)) [µg/mL] | SMILES | Therapeutic Index (TI = IC50/EC50) (HIV-1 (IIIB isolate)) | Cytotoxicity IC50 (mock-infected H9 cells) [µg/mL] | anti-viral activity (in words) (HIV-1 (IIIB isolate)) | Cytotoxicity IC50 (mock-infected H9 cells; uninfected H9 cells, five days, average of at least two experiments) [µg/mL] | EC50 [1] [nM] | therapeutic index (TI) [1]
8 | 0.000625 | Cc1cc(=O)oc2c3c(c(CO)cc12)OC(C)(C)[C@H](OC(=O)[C@@]12CCC(C)(C(=O)O1)C2(C)C)[C@@H]3OC(=O)[C@@]12CCC(C)(C(=O)O1)C2(C)C (relative stereo) [Compound 12, (3′R,4′R)-3′,4′-Di-O-(S)-(−)-camphanoyl-6-hydroxymethyl-4-methyl-(+)-cis-khellactone] | 30,900 | 19.3 | most potent | – | – | –
9 | 0.001 | Cc1cc(=O)oc2c3c(c(CN)cc12)OC(C)(C)[C@H](OC(=O)[C@@]12CC[C@@](C)(C(=O)O1)C2(C)C)[C@@H]3OC(=O)[C@@]12CC[C@@](C)(C(=O)O1)C2(C)C (relative stereo) [Compound 15, (3′R,4′R)-3′,4′-di-O-(S)-(−)-camphanoyl-6-aminomethyl-4-methyl-(+)-cis-khellactone] | 24,100 | 24.1 | most potent | – | – | –
10 | 0.045 | Cc1cn([C@H]2C[C@H](N=[N+]=[N-])[C@@H](CO)O2)c(=O)[nH]c1=O [AZT, reference compound] | 41,667 | 1875 | – | – | – | –
